“Also recorded” adds a separate entry of the source.
How the values were obtained:
SIV/HIV-2 antibodies = assay: EIA of HIV-2 gp32 peptide-protein conjugates against macaque serum pools; type: binding; conditions: peptide conjugated via C-terminus to BSA (SMCC), coated at 10 micrograms peptide/ml; 1:101 dilution of SIV+ macaque serum pool; Figure 5
Procedure: The free peptides or peptide-protein conjugates of Figures 1-13 were initially screened for immunoreactivity by coating each well of polystyrene microtiter EIA plates (Costar, Cambridge, Massachusetts, U.S.A.) with 0.2 ml amounts of concentrations of 5-50 micrograms/ml peptide in Tris buffer, 10 mM, pH 8.0, at 4°C overnight. Peptides or peptide-protein conjugates showing immunoreactivity by EIA were then further diluted for coating to determine the minimal concentrations required that allowed maximal immunoreactivity with antibodies to HIV, and minimal nonspecific reactivity with normal sera. The EIA tests were performed as follows: The coating solution was removed from each well and the wells were blocked at 37°C for 30 minutes with a solution of 50 mM phosphate, 100 mM NaCl, pH 7.4, 1% BSA, 0.5% gelatin. The wells were then aspirated dry with a microtiter plate washer and washed 3 times with a solution of 50 mM phosphate, 100 mM NaCl, .05% Tween 20, (trademark) pH 7.4 (PBST). […] Reactions were stopped with 50 microliters of 4N H₂SO₄, and the color development was quantitated in a Multiscan plate reader at A₄₉₂. […] Most peptides and peptide conjugates were initially screened against a 1:101 dilution of pools of HIV positive or HIV negative sera, and the same serum pool was used to allow quantitative comparison of immunoreactivity of different free peptides or peptide-protein conjugates.
The peptides in Figures 1 and 5 were synthesized as described in Example 1 and conjugated to KLH or BSA as described in Example 2. These peptide-protein conjugates were coated to polystyrene microtiter plates all at a concentration 10 micrograms peptide/ml and evaluated for immunoreactivity as described in Example 3, using a 1:101 dilution of a pool of sera (HIV+/SIV+, respectively) containing antibodies to HIV-1 (Figure 1) or to HIV-2 (Figure 5), as well as pooled serum (HIV-/SIV-, respectively) containing no antibodies to HIV-1 or HIV-2. […]

antibodies to HIV-2 = assay: Rapid EIA with latex-immobilized peptide reagents, HIV-2; type: binding; conditions: free peptide passively adsorbed onto carboxylate latex
Procedure: A 125 microliter volume of 10% latex was added to a 375 microliter volume of deionized water, and mixed with an equal volume (0.5ml) of 1M carbodiimide, pH 4.5. The mixture was shaken gently a room temperature for 1 hour, and then washed 3 times by centrifugation at 9,000 x g for 10 minutes, removal of supernate, and resuspension of the pellet in a 12-14 ml volume of deionized water, pH 4.5. The free peptides at 1 mg/ml concentration (500 micrograms/ml of each peptide 4S36 and 5S70), or the peptide-BSA conjugate of peptides 4S36 and 5S70 at 500 micrograms/ml were added to the final washed activated latex pellet (1 ml volume of peptide containing solution per 125 microliters original volume of latex). […] It was determined that this stock solution of latex coated with peptide-BSA conjugate could be diluted 1:10-1:30 with latex diluent buffer for use in the rapid EIA described below.
Serum specimens were diluted 1:8 for the rapid EIA in a serum diluent buffer consisting of 0.03M Tris, pH 8 containing 0.8% NaCl, 0.05% NaN₃, 0.05% Triton x-100 (trademark). […] The reaction was stopped after 3-4 minutes by adding a drop of 4N H₂SO₄, and the test device could be retained as a permanent record of positive (blue-purple color) or negative (white membrane) until the results were recorded. […]

Q: ARLNSWGCAFRQVCHGC [2S25] was tested. Which “immunoreactivity with SIV/HIV-2 antibodies” value (SIV/HIV-2 antibodies) did it give?
A: The value was “maximally immunoreactive; also recorded: Significant immunoreactivity; also recorded: best immunoreactivity”.

Q: What about the “discrimination of HIV-2+ from HIV-2- serum samples” value (antibodies to HIV-2) of the same sequence?
A: The value was “capable of discriminating”.
